In experiment [1] the test system is Erysiphe graminis f.sp. hordei. Put plainly: Erysiphe test (barley)/protective. To be noted: protective, application rate 250 g/ha, evaluated 7 days after inoculation. The format is in vivo. The method, then: The test is evaluated 7 days after the inoculation.
The test system of experiment [2] is Pseudocercosporella herpotrichoides. Put plainly: Pseudocercosporella herpotrichoides test (wheat)/protective. The format is in vivo. To be noted: protective, application rate 250 g/ha, evaluated 21 days after inoculation. The method, then: The test is evaluated 21 days after inoculation.
Experiment [3] has as its system Erysiphe graminis f.sp. hordei. Put plainly: Erysiphe test (barley)/curative. The format is in vivo. Conditions: curative (sprayed 48 hours after inoculation), application rate 250 g/ha, evaluated 7 days after inoculation.
Experiment [4] concerns Fusarium nivale var. nivale. Briefly: Fusarium nivale (var. nivale) test (wheat)/curative. Conditions: curative (sprayed 24 hours after inoculation), application rate 250 g/ha, evaluated 4 days after inoculation.
Experimental: Fusarium nivale (var. nivale) Test (Wheat)/curative
Solvent: 100 parts by weight of dimethylformamide
Emulsifier: 0.25 part by weight of alkylaryl polyglycol ether
To test for curative activity, young plants are sprayed with a conidia suspension of Fusarium nivale var. nivale.
The plants remain in an incubation cabin at 15° C. and a relative atmospheric humidity of 100% for 24 hours.
After the spray coating has dried on, the plants remain in a greenhouse under translucent incubation hoods at a temperature of about 15° C. and a relative atmospheric humidity of about 100%.
(§1) The test is evaluated 4 days after inoculation.
Experiment [5] deals with Fusarium nivale var. nivale. Put plainly: Fusarium nivale (var. nivale) test (wheat)/protective. Conditions: protective, application rate 250 g/ha, evaluated 4 days after inoculation.
Experimental: Fusarium nivale (var. nivale) Test (Wheat)/protective
(§2) Solvent: 10 parts by weight of N-methylpyrrolidone
(§3) Emulsifier: 0.6 part by weight of alkylaryl polyglycol ether
After the spray coating has dried on, the plants are sprayed with a conidia suspension of Fusarium nivale var. nivale.
(§4) The plants are placed in a greenhouse at a temperature of about 15° C. and a relative atmospheric humidity of about 100% under translucent incubation hoods.
as §1
In experiment [6] the test system is Fusarium nivale var. majus. Briefly: Fusarium nivale (var. majus) test (wheat)/protective. To be noted: protective, application rate 250 g/ha, evaluated 4 days after inoculation.
Experimental: Fusarium nivale (var. Majus) Test (Wheat)/protective
as §2, §3
After the spray coating has dried on, the plants are sprayed with a conidia suspension of Fusarium nivale var. majus.
as §4, §1

On to `CON=C(C1=NOCCO1)c1ccccc1Oc1ncnc(Oc2ccccc2C2OCC(C)(C)CO2)c1F` [Example 59], for which the “efficacy in comparison with the untreated control” value (“efficacy in comparison” for short) in experiment [1] is 100%.
With `CON=C(C1=NOCCO1)c1ccccc1Oc1ncnc(Oc2ccccc2Cn2cncn2)c1F` [Example 71], in experiment [2], the “efficacy in comparison” value was determined as 100%.
Consider `CO/N=C(/C1=NOCCO1)c1ccccc1Oc1ncnc(Oc2ccccc2Cl)c1F` [Example 1, 3-{1-[2-(4-<2-chlorophenoxy>-5-fluoropyrimid-6-yloxy)-phenyl]-1-(methoximino)-methyl}-5,6-dihydro-1,4,2-dioxazine], for which the “efficacy in comparison” value in experiment [3] is recorded as 100%.
With `CCCc1ccccc1Oc1ncnc(Oc2ccccc2C(=NOC)C2=NOCCO2)c1F` [Example 34], the “efficacy in comparison” value in experiment [4] and in experiment [5] was 100% throughout.
On to `CON=C(C1=NOCCO1)c1ccccc1Oc1ncnc(Oc2cc(C)cc(C)c2C)c1F` [Example 14], for which, in experiment [6], the “efficacy in comparison” value came out at 100%.
With `CON=C(C1=NOCCO1)c1ccccc1Oc1ncnc(Oc2cccc3c2CC(C)(C)O3)c1F` [Example 42], the “efficacy in comparison” value in experiment [6] turned out to be 100%.
In the case of `C=C(C)Cc1ccccc1Oc1ncnc(Oc2ccccc2C(=NOC)C2=NOCCO2)c1F` [Example 31], in experiment [4], the “efficacy in comparison” value turned out to be 100%.
`CON=C(C1=NOCCO1)c1ccccc1Oc1ncnc(Oc2ccccc2OCc2ccccc2)c1F` [Example 33]: in experiment [6], the “efficacy in comparison” value is 100%.
`CON=C(C1=NOCCO1)c1ccccc1Oc1ncnc(Oc2ccccc2C(=O)NCc2ccccc2)c1F` [Example 69]: in experiment [2], the “efficacy in comparison” value is given as 100%.

These data come from patent US6407233B1, “Halogen pyrimidines and its use thereof as parasite abatement means” (Bayer Aktiengesellschaft, priority 1996, dated 2002).
